From patent publication US5856503A, “Aminoalkyl-substituted benzo-heterocyclic compounds” (Hoffmann-La Roche Inc., priority 1995, dated 1999)
≈ marks a conversion by molar mass, not a printed value. Where two headings read alike, the source gives them in different places.

Assays:
[1] = target: T1, human liver microsomal 2,3-oxidosqualene-lanosterol cyclase (OSC) (Homo sapiens, UniProt P48449); experiment: Inhibition of human liver microsomal 2,3-oxidosqualene-lanosterol cyclase (OSC); format: biochemical; conditions: for inhibition at 0.1 µM: 100 nM test substance, 1 hour at 37° C., against controls; for IC50: pH 7.4, 1 hour at 37° C., read-out: IC50 (OSC, conversion of MOS into lanosterol)
T1 construct: Liver microsomes from a healthy volunteer were prepared in sodium phosphate buffer (pH 7.4); from tissue; host or cells: liver microsomes from a healthy human volunteer
T1 sequence (P48449 1-732): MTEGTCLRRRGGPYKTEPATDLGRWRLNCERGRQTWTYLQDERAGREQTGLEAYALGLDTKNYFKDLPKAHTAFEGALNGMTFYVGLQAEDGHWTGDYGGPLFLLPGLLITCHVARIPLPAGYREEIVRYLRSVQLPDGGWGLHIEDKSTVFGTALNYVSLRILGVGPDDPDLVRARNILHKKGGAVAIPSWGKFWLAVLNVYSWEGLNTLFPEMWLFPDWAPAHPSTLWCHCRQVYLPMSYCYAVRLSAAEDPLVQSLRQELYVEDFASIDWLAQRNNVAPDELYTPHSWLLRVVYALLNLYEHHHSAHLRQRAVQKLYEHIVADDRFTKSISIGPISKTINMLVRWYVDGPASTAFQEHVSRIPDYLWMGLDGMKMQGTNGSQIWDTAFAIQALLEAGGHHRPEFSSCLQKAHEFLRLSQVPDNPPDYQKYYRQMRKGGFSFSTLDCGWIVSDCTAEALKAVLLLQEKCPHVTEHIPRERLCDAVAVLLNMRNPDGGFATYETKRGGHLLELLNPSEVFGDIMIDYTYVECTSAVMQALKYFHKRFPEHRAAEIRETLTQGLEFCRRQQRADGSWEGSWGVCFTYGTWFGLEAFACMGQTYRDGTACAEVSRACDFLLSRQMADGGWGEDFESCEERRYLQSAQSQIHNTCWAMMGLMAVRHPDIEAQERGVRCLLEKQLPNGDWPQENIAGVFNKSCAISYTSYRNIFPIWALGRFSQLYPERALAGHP
Description: Inhibition of human liver microsomal 2,3-oxidosqualene-lanosterol cyclase (OSC)
Liver microsomes from a healthy volunteer were prepared in sodium phosphate buffer (pH 7.4). The OSC activity was measured in the same buffer which also contained 1 mM EDTA and 1 mM dithiothreitol. The microsomes were diluted to 0.8 mg/ml protein in cold phosphate buffer. Dry [^14 C]R,S-monooxidosqualene (MOS; 12.8 μCi/mmol) was diluted to 20 nCi/μl with ethanol and mixed with phosphate buffer-1% BSA (Bovine Serum Albumin). A stock solution of 1 mM test substance in DMSO was diluted to the desired concentration with phosphate buffer-1% BSA. 40 μl of microsomes were mixed with 20 μl of the solution of the test substance and the reaction was subsequently started with 20 μl of the [^14 C]R,S-MOS solution. The final conditions were: 0.4 mg/ml of microsomal proteins and […] of [^14 C]R,S-MOS in phosphate buffer, pH 7.4, containing 0.5% albumin, DMSO <0.1% and ethanol <2%, in a total volume of 80 μl.
After 1 hour at 37° C. the reaction was stopped by the addition of 0.6 ml of 10% KOH-methanol, 0.7 ml of water and 0.1 ml of hexane:ether (1:1, v/v) which contained 25 μg of non-radioactive MOS and 25 μg of lanosterol as the carrier. After shaking 1 ml of hexane:ether (1:1, v/v) was added to each test tube, these were again shaken and then centrifuged. The upper phase was transferred into a glass test tube, the lower phase was again extracted with hexane:ether and combined with the first extract. The entire extract was evaporated to dryness with nitrogen, the residue was suspended in 50 μl of hexane:ether and applied to a silica gel plate. Chromatographic separation was effected in hexane:ether (1:1, v/v) as the eluent. […] After drying radioactive MOS and lanosterol were observed on the silica gel plate. The ratio of MOS to lanosterol was determined from the radioactive bands in order to determine the OSC inhibition.
The test was carried out on the one hand with a constant test substance concentration of 100 nM and the percentage OSC inhibition against controls was calculated. In addition, the test was carried out with different test substance concentrations and subsequently the IC50 value was calculated, i.e. the concentration required to reduce the conversion of MOS into lanosterol to 50% of the control value.

[2] = Cholesterol lowering in fat-fed hamsters; format: in vivo, Male golden hamsters; conditions: 200 μmol (about 70-120 mg/kg/day) in diet, 10 days
Description: Cholesterol lowering in fat-fed hamsters
Male golden hamsters kept individually were pre-treated for 7 days with a diet containing grated coconut (40 cal. % fat). The animals were then divided into groups each comprising 5 animals. During the treatment the animals were maintained on the same diet. Each test substance was firstly homogenized in 9 ml of water and subsequently mixed with the milled diet. The controls received only feed converted into a paste with water. The animals were treated for 10 days with a test substance dosage of 200 μmol (about 70-120 mg/kg/day). Blood samples (200 μl) were removed via the jugular vein under light anaesthesia on the last day of the pretreatment and one day after the last administration of test substance. The plasma cholesterol concentration was determined using a colorimetric enzyme method. The plasma lipoproteins were separated by exclusion chromatography (Hennes et al., Science Tools, 36, 1992, 10-12). The total cholesterol was determined in each fraction using a fluorometric enzyme method (Gamble et al., J. Lipid Res., 19, 1978, 1068-1071) in order to calculate the amount of cholesterol in the LDL and HDL fractions. The activity on plasma cholesterol and LDL and HDL cholesterol, expressed in percent of the control animals, for the products of Examples 8a and 12 is reproduced in the following Table: […]

[3] = test system: Candida albicans; experiment: Antifungal activity in vitro, C. albicans (microdilution); format: cell-based; conditions: 27° C.
Description: (§1) Antifungal activity in vitro The compounds were tested for antifungal activity against Candida albicans, Cryptococcus neoformans and Aspergillus fumigatus using a microdilution method on microtitre plates (96 wells per plate). Yeast supplemented with 1% glucose and 0.25% di-potassium phosphate was used for the three fungal strains. The fungal cells were inoculated at 3×10^4 CFU (Colony Forming Unit) in […] of medium per well. The medium contained increasing concentrations of test substance. After incubation at 27° C. for 24 or 48 hours the turbidity in each well was measured by a microtitre plate reader. The growth inhibition was calculated in comparison to (without test substance). The IC50 value given in the following Table is the concentration of test substance at which the growth is inhibited by 50%.

[4] = test system: Cryptococcus neoformans; experiment: Antifungal activity in vitro, C. neoformans (microdilution); format: cell-based; conditions: 48 hours, 27° C., read-out: IC50 for C. neoformans after 48 hours (growth inhibition)
Description: as §1

[5] = test system: Aspergillus fumigatus; experiment: Antifungal activity in vitro, A. fumigatus (microdilution); format: cell-based; conditions: 48 hours, 27° C., read-out: IC50 for A. fumigatus after 48 hours (growth inhibition)
Description: as §1

[6] = 24 hrs., read-out: IC50 for C. albicans after 24 hrs. (growth inhibition)
[7] = 48 hrs., read-out: IC50 for C. albicans after 48 hrs. (growth inhibition)

inhibition at 0.1 µM [1]	IC50 [1]	IC50 [3, 6]	IC50 [3, 7]	IC50 [4]	IC50 [5]	Structure (SMILES)	HDL cholesterol (plasma, percent of control animals) [2]	LDL cholesterol (plasma, percent of control animals) [2]	Total cholesterol (plasma, percent of control animals) [2]
96%	3.3 nM	< 0.32 mg/L	3.6 mg/L (≈ 7.84 µM)	< 0.32 mg/L	3.9 mg/L (≈ 8.49 µM)	C=CCN(C)CCCCCCOc1ccc2c(-c3ccc(Br)cc3)nsc2c1 [Example 1, allyl-[6-[3-(4-bromo-phenyl)-benzo[d]isothiazol-6-yloxy]-hexyl]-methyl-amine]	-27%	-36%	-33%
98%	1.6 nM	< 0.32 mg/L	1.4 mg/L (≈ 3.09 µM)	< 0.32 mg/L	1.9 mg/L (≈ 4.19 µM)	CN(CCCCCCOc1ccc2c(-c3ccc(Br)cc3)nccc2c1)C1CC1 [Example 24, [6-[1-(4-bromo-phenyl)-isoquinolin-6-yloxy]-hexyl]-cyclopropyl-methyl-amine]	–	–	–
